Measured values: patent US7700593B2, “Imidazo- and triazolo-pyridine compounds and methods of use thereof” (Amgen Inc., priority 2006, dated 2010)

Key:
p38α = p38α (Homo sapiens, UniProt Q16539); experiment: p38 in-vitro HTRF enzyme assay; type: biochemical; details: IC50 value ranges
Protocol: p38 In-Vitro HTRF Enzyme Assay
The compounds of the invention can be tested for their respective affinities for the p38 protein using a conventional p38 in-vitro enzyme activity assay. For example, a P38-alpha HTRF assay may be used to measure the protein's in-vitro phosphorylation activity, and the data analyzed using time resolved fluorimetry techniques (FRET). A p38 HTRF assay is as follows. The kinase reaction buffer for p38α, p38β, p38δ and p38γ HTRF assays consists of 50 mM Tris-pH 7.5, 5 mM MgCl2, 0.1 mg/mL BSA, 100 μM Na3VO4 and 0.5 mM DTT. The HTRF detection buffer contains 100 mM HEPES-pH 7.5, 100 mM NaCl, 0.1% BSA, 0.05% Tween-20, and 10 mM EDTA. Each compound was dissolved in 100% DMSO and serially diluted (3 fold, 10 point) in a polypropylene 96-well microtiter plate (drug plate). The final starting concentration of the compound in the p38α and p38β enzymatic assays was about 1 μM. The final starting concentration of each compound in the p38δ and p38γ enzymatic assays was about 10 μM. The p38α, p38β, p38δ and p38γ kinase reactions were carried out in a polypropylene 96-well black round bottom assay plate in total volume of 30 μL kinase reaction buffer. Appropriate concentration of purified and activated enzyme (recombinant human) was mixed with indicated concentration of ATP and 100 nM GST-ATF2-Avitag, in the presence or absence (HI control) of each compound. In the absence of enzyme, the background was measured as LO control. HI controls and LO controls contained only DMSO. The reaction was allowed to incubate for 1 hour at RT. […] After 60 minutes incubation at room temperature, the assay plate was read in a Discovery Plate Reader. The wells were excited with coherent 320 nm light and the ratio of delayed ([…] post excitation) emissions at […] (native europium fluorescence) and 665 nm (europium fluorescence transferred to allophycocyanin—an index of substrate phosphorylation) was determined (Park et al, 1999). The resulting data was analyzed by taking the proportion of substrate phosphorylated in the kinase reaction in the presence of each individual compound and comparing it with that phosphorylated in the presence of DMSO vehicle alone (HI control). The data was calculated using the formula: % control (POC)=(compound−average LO)/(average HI−average LO)*100. Data (consisting of POC and inhibitor concentration in μM) was fitted to a 4-parameter equation (y=A+((B−A)/(1+((x/C)^D))), where A is the minimum y (POC) value, B is the maximum y (POC), C is the x (compound concentration) at the point of inflection and D is the slope factor, using a Levenburg-Marquardt non-linear regression algorithm. The inhibition constant (Ki) of the inhibitor was estimated from the IC50 (compound concentration at the point of inflection C) using the Cheng-Prussof equation: Ki=IC50/(1+S/Km), where S is the ATP substrate concentration, and Km is the Michaelis constant for ATP as determined experimentally. All results were expressed as the mean±the standard error of the mean. Data acquisition and non-linear regression algorithms were performed using Activity Base v5.2 and XLfit software v4.1 respectively. Additional assay information may be obtained in Park Y W, Cummings R T, Wu L, et al. Homogeneous Proximity Tyrosine Kinase Assays Scintillation Proximity Assay versus Homogeneous Time-Resolved Fluorescence. Analytical Biochemistry. 1999; 269: 94-104.

THP1 cells = experiment: Lipopolysaccharide-activated THP1 cell TNF production assay; type: cell-based, human; details: Homo sapiens, THP-1; LPS-induced TNF-α production in THP1 cells
Protocol: Lipopolysaccharide-Activated THP1 Cell TNF Production Assay
THP1 cells are resuspended in fresh THP1 media (RPMI 1640, 10% heat-inactivated FBS, 1×PGS, 1×NEAA, plus 30 μM βME) at a concentration of 1E6/mL. One hundred microliters of cells per well are plated in a polystyrene 96-well tissue culture. One microgram per mL of bacterial LPS is prepared in THP1 media and is transferred to the wells. Test compounds are dissolved in 100% DMSO and are serially diluted 3-fold in a polypropylene 96-well microtiter plate (drug plate). HI control and LO control wells contain only DMSO. One microliter of test compound from the drug plate followed by 10 μL of LPS are transferred to the cell plate. The treated cells are induced to synthesize and secrete TNF-α at 37° C. for 3 h. Forty microliters of conditioned media are transferred to a 96-well polypropylene plate containing 110 μL of ECL buffer (50 mM Tris-HCl pH 8.0, 100 mM NaCl, 0.05% Tween 20, 0.05% NaN3 and 1% FBS) supplemented with 0.44 nM MAB610 monoclonal Ab (R&D Systems), 0.34 nM ruthenylated AF210NA polyclonal Ab (R&D Systems) and 44 μg/mL sheep anti-mouse M280 Dynabeads (Dynal). After a 2 h incubation at room temperature with shaking, the reaction is read on the ECL M8 Instrument (IGEN Inc.). A low voltage is applied to the ruthenylated TNF-α immune complexes, which in the presence of TPA (the active component in Origlo), results in a cyclical redox reaction generating light at […]. The amount of secreted TNF-α in the presence of compound compared with that in the presence of DMSO vehicle alone (HI control) is calculated using the formula: % control (POC)=(cpd−average LO)/(average HI−average LO)*100. Data (consisting of POC and inhibitor concentration in μM) is fitted to a 4-parameter equation (y=A+((B−A)/(1+((x/C)^D))), where A is the minimum y (POC) value, B is the maximum y (POC), C is the x (cpd concentration) at the point of inflection and D is the slope factor) using a Levenburg-Marquardt non-linear regression algorithm.

monocytes = experiment: Lipopolysaccharide-activated monocyte TNF production assay (LPS induced TNF release); type: cell-based, human; details: Homo sapiens, Monocyte; LPS induced TNF release from monocytes; read-out: LPS induced TNFa
Protocol: Lipopolysaccharide-Activated Monocyte TNF Production Assay
Test compounds were evaluated in vitro for the ability to inhibit the production of TNF by monocytes activated with bacterial lipopolysaccharide (LPS). Fresh residual source leukocytes (a byproduct of plateletpheresis) were obtained from a local blood bank, and peripheral blood mononuclear cells (PBMCs) were isolated by density gradient centrifugation on Ficol-Paque Plus (Pharmacia). PBMCs were suspended at 2×10^6/mL in DMEM supplemented to contain 2% FCS, 10 mM, 0.3 mg/mL […], 100 U/mL penicillin G and […] streptomycin sulfate (complete media). Cells were plated into Falcon flat bottom, 96 well culture plates (200 μL/well) and cultured overnight at 37° C. and 6% CO2. Non-adherent cells were removed by washing with 200 μl/well of fresh medium. Wells containing adherent cells (˜70% monocytes) were replenished with 100 μL of fresh medium.
Preparation of Test Compound Stock Solutions
Test compounds were dissolved in […]. Compound stock solutions were prepared to an initial concentration of […]. Stocks were diluted initially to […] in complete media. Nine two-fold serial dilutions of each compound were then prepared in complete medium.
Treatment of Cells with Test Compounds and Activation of TNF Production with Lipopolysaccharide
One hundred microliters of each test compound dilution were added to microtiter wells containing adherent monocytes and 100 μL complete medium. Monocytes were cultured with test compounds for 60 min at which time 25 μL of complete medium containing 30 ng/mL lipopolysaccharide from E. coli K532 were added to each well. Cells were cultured an additional 4 hrs. Culture supernatants were then removed and TNF presence in the supernatants was quantified using an ELISA.
Flat bottom, 96 well Corning High Binding ELISA plates were coated overnight (4° C.) with 150 μL/well of 3 μg/mL murine anti-human TNF-α MAb (R&D Systems #MAB210). Wells were then blocked for 1 h at room temperature with 200 μL/well of CaCl2-free ELISA buffer supplemented to contain 20 mg/mL BSA (standard ELISA buffer: […], 150 mM NaCl, 2 mM CaCl2, 0.15 mM thimerosal, pH 7.4). Plates were washed and replenished with 100 μL of test supernatants (diluted 1:3) or standards. Standards consisted of eleven 1.5-fold serial dilutions from a stock of 1 ng/mL recombinant human TNF (R&D Systems). Plates were incubated at room temperature for 1 h on orbital shaker (300 rpm), washed and replenished with 100 μL/well of 0.5 μg/mL goat anti-human TNF-α (R&D systems #AB-210-NA) biotinylated at a 4:1 ratio. Plates were incubated for 40 min, washed and replenished with 100 μL/well of alkaline phosphatase-conjugated streptavidin (Jackson ImmunoResearch #016-050-084) at 0.02 μg/mL. Plates were incubated 30 min, washed and replenished with 200 μL/well of 1 mg/mL of p-nitrophenyl phosphate.
Standard curve data were fit to a second order polynomial and unknown TNF-α concentrations determined from their OD by solving this equation for concentration. TNF concentrations were then plotted vs. test compound concentration using a second order polynomial. This equation was then used to calculate the concentration of test compounds causing a 50% reduction in TNF production.

Sequence of p38α (Q16539 whole entry): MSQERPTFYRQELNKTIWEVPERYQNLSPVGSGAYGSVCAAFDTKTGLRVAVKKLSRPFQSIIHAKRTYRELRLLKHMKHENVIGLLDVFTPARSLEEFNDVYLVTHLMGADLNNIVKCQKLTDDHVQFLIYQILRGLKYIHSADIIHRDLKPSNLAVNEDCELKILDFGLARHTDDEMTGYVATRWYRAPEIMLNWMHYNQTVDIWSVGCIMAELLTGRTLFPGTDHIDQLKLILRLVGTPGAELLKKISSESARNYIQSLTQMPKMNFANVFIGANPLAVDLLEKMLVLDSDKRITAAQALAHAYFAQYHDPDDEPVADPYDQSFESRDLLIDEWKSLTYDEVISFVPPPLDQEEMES

Row | IC50 (p38α) [µM] | IC50 (THP1 cells) [µM] | IC50 (monocytes) [µM] | Compound
1 | < 0.025 | < 0.025 |  | Cc1ccc(C(=O)Nc2ccnn2C)cc1-c1ccn2c(C3(C(F)(F)F)CC3)nnc2c1 [Example 20, 4-methyl-N-(1-methyl-1H-pyrazol-5-yl)-3-(3-(1-(trifluoromethyl)cyclopropyl)[1,2,4]triazolo[4,3-a]pyridin-7-yl)benzamide]
2 |  | 0.025 to 0.1 | 0.1 to 0.25 | Cc1cc(F)c(C(=O)Nc2ccnn2C)cc1-c1ccn2c(-c3ccccc3Cl)nnc2c1 [Example 71, 5-(3-(2-chlorophenyl)[1,2,4]triazolo[4,3-a]pyridin-7-yl)-2-fluoro-4-methyl-N-(1-methyl-1H-pyrazol-5-yl)benzamide]
3 |  | 0.25 to 1 | 1 to 5 | Cc1ccc(C(=O)NC2CC2)cc1-c1ccn2c(N3CCNC3=O)nnc2c1 [Example 100, N-cyclopropyl-4-methyl-3-(3-(2-oxo-1-imidazolidinyl)[1,2,4]triazolo[4,3-a]pyridin-7-yl)benzamide]
4 |  | < 0.025 | 0.1 to 0.25 | Cc1cc(F)c(C(=O)Nc2ccnn2C)cc1-c1ccn2c(-c3sccc3C)nnc2c1 [Example 68, 2-fluoro-4-methyl-N-(1-methyl-1H-pyrazol-5-yl)-5-(3-(3-methyl-2-thienyl)[1,2,4]triazolo[4,3-a]pyridin-7-yl)benzamide]
5 |  | < 0.025 | < 0.025 | Cc1ccc(C(=O)NC2CC2)cc1-c1ccn2c(-c3c(F)cccc3F)nnc2c1 [Example 65, N-cyclopropyl-3-(3-(2,6-difluorophenyl)[1,2,4]triazolo[4,3-a]pyridin-7-yl)-4-methylbenzamide]
6 |  | 0.025 to 0.1 | 0.1 to 0.25 | Cc1cc(F)c(C(=O)NC2CC2)cc1-c1ccn2c(-c3sccc3C)nnc2c1 [Example 67, N-cyclopropyl-2-fluoro-4-methyl-5-(3-(3-methyl-2-thienyl)[1,2,4]triazolo[4,3-a]pyridin-7-yl)benzamide]
7 |  | 0.025 to 0.1 | 0.025 to 0.1 | Cc1cc(F)c(C(=O)NC2CC2)cc1-c1ccn2c(-c3c(F)cccc3Cl)nnc2c1 [Example 72, 5-(3-(2-chloro-6-fluorophenyl)[1,2,4]triazolo[4,3-a]pyridin-7-yl)-N-cyclopropyl-2-fluoro-4-methylbenzamide]
8 | < 0.025 |  |  | Cc1ccc(C(=O)NC2CC2)cc1-c1ccn2c(-c3c(C)cccc3F)nnc2c1 [Example 84, N-cyclopropyl-3-(3-(2-fluoro-6-methylphenyl)[1,2,4]triazolo[4,3-a]pyridin-7-yl)-4-methylbenzamide]
9 | < 0.025 |  |  | COc1ccccc1-c1nnc2cc(-c3cc(C(=O)NC4CC4)ccc3C)ccn12 [Example 85, N-cyclopropyl-4-methyl-3-(3-(2-(methyloxy)phenyl)[1,2,4]triazolo[4,3-a]pyridin-7-yl)benzamide]
10 |  | 0.025 to 0.1 | 0.1 to 0.25 | Cc1ccc(C(=O)NC2CC2)cc1-c1ccn2c(C(C)(C)C)nnc2c1C [Example 77, N-cyclopropyl-3-(3-(1,1-dimethylethyl)-8-methyl[1,2,4]triazolo[4,3-a]pyridin-7-yl)-4-methylbenzamide]
11 |  | < 0.025 | 0.025 to 0.1 | Cc1cc(F)c(C(=O)Nc2ccnn2C)cc1-c1ccn2c(-c3c(F)cccc3Cl)nnc2c1 [Example 73, 5-(3-(2-chloro-6-fluorophenyl)[1,2,4]triazolo[4,3-a]pyridin-7-yl)-2-fluoro-4-methyl-N-(1-methyl-1H-pyrazol-5-yl)benzamide]
12 |  | 0.025 to 0.1 | 0.1 to 0.25 | Cc1ccc(C(=O)NC2CC2)cc1-c1ccn2c([C@@H](C)C(F)(F)F)nnc2c1 [Example 87, N-cyclopropyl-4-methyl-3-(3-((1R)-2,2,2-trifluoro-1-methylethyl)[1,2,4]triazolo[4,3-a]pyridin-7-yl)benzamide]
13 |  | 0.025 to 0.1 | 0.1 to 0.25 | Cc1c(F)cc(C(=O)NC2CC2)cc1-c1ccn2c(C(C)(C)C)nnc2c1C [Example 76, N-cyclopropyl-3-(3-(1,1-dimethylethyl)-8-methyl[1,2,4]triazolo[4,3-a]pyridin-7-yl)-5-fluoro-4-methylbenzamide]
